Experimental data taken from ChEMBL document CHEMBL4020722, “Synthesis and evaluation of a series of pyridine and pyrimidine derivatives as type II c-Met inhibitors” (Bioorg Med Chem, 2017).

How the values were obtained:
EBC-1 = assay: cells; details: Homo sapiens, EBC-1, 72 h
HepG2 = assay: cells; details: Homo sapiens, HepG2, 72 h
[1] = molecular target: T1, Hepatocyte growth factor receptor (Homo sapiens, UniProt P08581); assay: Inhibition of recombinant c-MET (unknown origin) using poly (Glu, Tyr) 4:1 as substrate after 45 mins by ELISA
[2] = molecular target: Platelet-derived growth factor receptor alpha (Homo sapiens, UniProt P16234); assay: Inhibition of PDGFRalpha (unknown origin) by HTRF method
[3] = molecular target: Vascular endothelial growth factor receptor 2 (Homo sapiens, UniProt P35968)
[4] = molecular target: Proto-oncogene tyrosine-protein kinase receptor Ret (Homo sapiens, UniProt P07949); assay: Inhibition of RET (unknown origin) by HTRF method
[5] = molecular target: Epidermal growth factor receptor (Homo sapiens, UniProt P00533); assay: Inhibition of EGFR (unknown origin) by HTRF method
[6] = molecular target: T2, Receptor-type tyrosine-protein kinase FLT3 (Homo sapiens, UniProt P36888); assay: Inhibition of FLT3 (unknown origin) by HTRF method
T2 sequence (P36888 whole entry): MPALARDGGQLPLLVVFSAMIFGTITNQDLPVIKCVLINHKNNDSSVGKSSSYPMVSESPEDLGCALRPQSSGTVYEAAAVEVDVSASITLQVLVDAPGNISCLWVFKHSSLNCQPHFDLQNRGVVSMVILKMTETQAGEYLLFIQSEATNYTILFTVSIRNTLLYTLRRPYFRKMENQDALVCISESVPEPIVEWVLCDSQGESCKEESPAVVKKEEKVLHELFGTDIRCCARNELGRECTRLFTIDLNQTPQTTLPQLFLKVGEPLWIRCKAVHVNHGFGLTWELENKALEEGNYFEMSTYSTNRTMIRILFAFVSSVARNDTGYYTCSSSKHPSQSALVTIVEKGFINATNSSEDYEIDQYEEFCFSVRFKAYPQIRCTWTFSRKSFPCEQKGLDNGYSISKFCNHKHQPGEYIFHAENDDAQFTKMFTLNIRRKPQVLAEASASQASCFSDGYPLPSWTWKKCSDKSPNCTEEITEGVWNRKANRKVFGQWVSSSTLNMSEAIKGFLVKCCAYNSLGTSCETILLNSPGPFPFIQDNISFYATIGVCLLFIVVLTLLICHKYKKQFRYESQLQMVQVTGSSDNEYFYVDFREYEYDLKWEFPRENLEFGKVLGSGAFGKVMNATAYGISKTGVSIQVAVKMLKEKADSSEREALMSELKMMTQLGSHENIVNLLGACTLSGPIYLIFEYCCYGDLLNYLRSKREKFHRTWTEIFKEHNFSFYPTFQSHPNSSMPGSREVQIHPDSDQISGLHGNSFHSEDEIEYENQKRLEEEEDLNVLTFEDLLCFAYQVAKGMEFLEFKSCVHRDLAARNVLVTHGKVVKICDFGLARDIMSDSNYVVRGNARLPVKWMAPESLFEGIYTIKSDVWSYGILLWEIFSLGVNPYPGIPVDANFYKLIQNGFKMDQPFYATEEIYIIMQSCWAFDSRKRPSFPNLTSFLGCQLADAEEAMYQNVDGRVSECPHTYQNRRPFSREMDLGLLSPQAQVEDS

[7] = molecular target: T1, Hepatocyte growth factor receptor; details: 0.1 mM
[8] = molecular target: Mast/stem cell growth factor receptor Kit (Homo sapiens, UniProt P10721); assay: Inhibition of KIT (unknown origin) by HTRF method
Chain of Mast/stem cell growth factor receptor Kit (P10721 whole entry): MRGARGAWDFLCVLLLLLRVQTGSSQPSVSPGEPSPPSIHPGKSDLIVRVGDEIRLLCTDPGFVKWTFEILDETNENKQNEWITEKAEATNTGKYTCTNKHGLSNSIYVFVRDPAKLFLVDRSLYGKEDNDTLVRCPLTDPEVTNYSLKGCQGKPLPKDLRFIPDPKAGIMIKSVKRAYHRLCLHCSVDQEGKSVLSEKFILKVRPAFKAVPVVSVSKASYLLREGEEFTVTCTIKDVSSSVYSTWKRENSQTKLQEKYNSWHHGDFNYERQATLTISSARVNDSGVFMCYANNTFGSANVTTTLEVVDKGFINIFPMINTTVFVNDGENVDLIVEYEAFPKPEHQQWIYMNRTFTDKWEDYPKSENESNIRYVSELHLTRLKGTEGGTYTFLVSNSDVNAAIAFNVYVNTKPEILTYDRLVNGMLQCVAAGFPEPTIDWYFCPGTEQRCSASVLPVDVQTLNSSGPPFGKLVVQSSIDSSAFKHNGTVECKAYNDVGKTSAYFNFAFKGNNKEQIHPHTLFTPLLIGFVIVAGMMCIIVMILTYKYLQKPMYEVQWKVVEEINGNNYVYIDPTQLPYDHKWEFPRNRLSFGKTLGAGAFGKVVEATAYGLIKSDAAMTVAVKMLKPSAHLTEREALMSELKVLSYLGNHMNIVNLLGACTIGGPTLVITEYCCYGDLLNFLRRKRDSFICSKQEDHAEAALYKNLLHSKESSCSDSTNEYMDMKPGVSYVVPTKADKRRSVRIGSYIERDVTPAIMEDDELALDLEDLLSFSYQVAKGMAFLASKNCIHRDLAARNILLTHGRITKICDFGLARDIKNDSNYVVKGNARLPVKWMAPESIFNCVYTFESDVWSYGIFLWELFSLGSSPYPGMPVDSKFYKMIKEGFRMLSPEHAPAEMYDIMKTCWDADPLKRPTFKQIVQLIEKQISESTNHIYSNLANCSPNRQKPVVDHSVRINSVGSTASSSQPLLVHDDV

T1 sequence (P08581 whole entry): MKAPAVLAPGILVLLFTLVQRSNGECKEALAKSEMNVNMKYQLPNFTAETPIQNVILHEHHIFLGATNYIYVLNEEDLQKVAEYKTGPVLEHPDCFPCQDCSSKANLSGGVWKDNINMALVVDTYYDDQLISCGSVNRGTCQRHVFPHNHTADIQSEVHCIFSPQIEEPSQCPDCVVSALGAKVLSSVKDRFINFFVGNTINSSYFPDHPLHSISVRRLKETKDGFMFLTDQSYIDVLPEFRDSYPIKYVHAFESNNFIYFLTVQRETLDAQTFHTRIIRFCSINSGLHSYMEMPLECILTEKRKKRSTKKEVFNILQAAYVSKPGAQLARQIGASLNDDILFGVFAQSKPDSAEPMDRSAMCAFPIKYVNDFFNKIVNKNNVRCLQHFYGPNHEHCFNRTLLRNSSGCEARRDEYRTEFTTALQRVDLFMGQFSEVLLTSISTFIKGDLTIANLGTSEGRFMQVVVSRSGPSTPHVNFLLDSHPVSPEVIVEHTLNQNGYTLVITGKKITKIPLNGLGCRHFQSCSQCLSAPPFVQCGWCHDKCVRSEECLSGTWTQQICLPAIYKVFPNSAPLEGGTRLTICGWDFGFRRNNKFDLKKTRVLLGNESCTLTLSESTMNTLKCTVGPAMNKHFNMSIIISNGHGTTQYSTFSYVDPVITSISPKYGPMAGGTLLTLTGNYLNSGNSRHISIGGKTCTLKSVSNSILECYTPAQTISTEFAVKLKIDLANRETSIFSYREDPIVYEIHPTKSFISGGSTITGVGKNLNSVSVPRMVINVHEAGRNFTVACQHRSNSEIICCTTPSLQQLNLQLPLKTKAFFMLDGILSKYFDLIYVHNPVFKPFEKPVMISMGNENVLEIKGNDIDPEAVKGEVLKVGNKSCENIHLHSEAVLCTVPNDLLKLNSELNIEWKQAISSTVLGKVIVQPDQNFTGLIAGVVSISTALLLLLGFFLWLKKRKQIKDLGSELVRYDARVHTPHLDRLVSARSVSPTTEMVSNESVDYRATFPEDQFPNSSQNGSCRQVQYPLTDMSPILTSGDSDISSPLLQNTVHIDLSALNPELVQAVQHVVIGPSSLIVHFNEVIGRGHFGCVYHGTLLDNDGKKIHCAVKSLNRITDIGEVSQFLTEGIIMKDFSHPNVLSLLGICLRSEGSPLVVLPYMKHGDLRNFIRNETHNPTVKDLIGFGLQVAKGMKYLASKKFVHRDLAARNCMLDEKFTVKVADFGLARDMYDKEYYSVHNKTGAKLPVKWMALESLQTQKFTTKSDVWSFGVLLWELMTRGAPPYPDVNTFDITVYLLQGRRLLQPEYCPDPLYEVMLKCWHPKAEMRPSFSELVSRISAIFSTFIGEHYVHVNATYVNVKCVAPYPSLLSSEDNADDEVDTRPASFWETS
Chain of Platelet-derived growth factor receptor alpha (P16234 whole entry): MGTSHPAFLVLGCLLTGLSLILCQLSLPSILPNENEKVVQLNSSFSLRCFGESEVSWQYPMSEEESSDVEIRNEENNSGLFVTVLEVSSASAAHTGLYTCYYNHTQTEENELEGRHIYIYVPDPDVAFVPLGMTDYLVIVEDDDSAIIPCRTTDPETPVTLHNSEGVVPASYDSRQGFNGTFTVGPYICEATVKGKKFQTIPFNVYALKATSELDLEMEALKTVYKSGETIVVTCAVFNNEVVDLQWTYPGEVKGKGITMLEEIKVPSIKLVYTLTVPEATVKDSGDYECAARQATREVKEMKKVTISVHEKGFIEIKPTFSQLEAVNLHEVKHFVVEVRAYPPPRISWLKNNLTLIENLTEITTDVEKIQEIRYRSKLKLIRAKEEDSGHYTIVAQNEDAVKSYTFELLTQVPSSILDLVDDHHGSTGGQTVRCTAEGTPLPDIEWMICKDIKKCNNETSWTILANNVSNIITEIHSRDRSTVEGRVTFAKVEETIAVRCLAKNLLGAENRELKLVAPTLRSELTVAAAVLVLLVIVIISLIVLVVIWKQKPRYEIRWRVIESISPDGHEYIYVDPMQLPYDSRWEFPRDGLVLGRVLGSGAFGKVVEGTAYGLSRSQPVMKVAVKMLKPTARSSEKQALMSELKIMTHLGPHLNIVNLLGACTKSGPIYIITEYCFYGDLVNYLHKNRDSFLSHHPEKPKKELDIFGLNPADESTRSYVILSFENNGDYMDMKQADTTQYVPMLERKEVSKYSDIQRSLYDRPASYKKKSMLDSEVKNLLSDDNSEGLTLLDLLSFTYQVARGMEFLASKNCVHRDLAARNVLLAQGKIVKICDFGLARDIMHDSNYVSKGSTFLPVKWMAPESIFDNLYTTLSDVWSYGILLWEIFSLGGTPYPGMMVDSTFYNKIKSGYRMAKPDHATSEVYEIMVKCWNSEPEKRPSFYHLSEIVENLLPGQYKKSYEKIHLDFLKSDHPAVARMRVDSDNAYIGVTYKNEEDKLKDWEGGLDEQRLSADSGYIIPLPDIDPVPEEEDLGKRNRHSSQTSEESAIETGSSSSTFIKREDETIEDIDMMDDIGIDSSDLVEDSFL
Chain of Epidermal growth factor receptor (P00533 whole entry): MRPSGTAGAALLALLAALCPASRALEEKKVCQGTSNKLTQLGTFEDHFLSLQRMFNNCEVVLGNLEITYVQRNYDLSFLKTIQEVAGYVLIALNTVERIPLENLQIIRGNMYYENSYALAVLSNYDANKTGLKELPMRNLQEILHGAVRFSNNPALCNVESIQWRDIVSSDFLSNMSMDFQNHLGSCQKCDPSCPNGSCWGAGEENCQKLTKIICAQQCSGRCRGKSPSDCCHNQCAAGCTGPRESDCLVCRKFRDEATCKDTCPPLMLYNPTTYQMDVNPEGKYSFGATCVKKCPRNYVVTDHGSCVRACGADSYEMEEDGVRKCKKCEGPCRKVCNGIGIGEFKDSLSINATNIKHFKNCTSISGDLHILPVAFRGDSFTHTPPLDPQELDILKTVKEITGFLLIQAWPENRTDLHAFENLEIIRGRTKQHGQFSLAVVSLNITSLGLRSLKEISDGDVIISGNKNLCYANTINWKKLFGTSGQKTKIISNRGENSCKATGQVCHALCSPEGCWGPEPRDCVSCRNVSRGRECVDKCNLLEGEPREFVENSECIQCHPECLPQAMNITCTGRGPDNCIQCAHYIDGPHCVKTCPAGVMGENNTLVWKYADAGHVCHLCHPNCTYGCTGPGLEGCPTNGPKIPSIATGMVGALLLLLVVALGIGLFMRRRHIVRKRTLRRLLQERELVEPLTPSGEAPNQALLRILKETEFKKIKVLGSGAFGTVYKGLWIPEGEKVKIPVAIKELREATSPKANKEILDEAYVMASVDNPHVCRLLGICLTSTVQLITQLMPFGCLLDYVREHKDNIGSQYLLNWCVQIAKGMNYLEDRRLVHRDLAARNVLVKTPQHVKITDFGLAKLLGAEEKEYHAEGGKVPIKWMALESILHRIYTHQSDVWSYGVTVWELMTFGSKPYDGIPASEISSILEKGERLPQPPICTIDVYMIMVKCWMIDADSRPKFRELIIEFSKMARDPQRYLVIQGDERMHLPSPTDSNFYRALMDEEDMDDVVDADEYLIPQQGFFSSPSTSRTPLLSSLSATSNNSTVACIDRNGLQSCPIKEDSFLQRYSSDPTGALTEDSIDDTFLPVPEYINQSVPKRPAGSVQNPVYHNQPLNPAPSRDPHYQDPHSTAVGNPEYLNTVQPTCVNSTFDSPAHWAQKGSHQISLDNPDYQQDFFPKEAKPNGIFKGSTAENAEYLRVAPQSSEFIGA

IC50 (EBC-1) | IC50 (HepG2) | IC50 [1] | Compound | further results
> 1 µM | > 1 µM | – | Nc1cc(Oc2ccc(NC(=O)C3(C(=O)Nc4ccc(Cl)cc4)CC3)cc2F)ncn1 | –
– | – | > 10 µM | Nc1nccc(Oc2ccc(NC(=O)C3(C(=O)NCc4ccc(F)cc4)CC3)cc2F)n1 | –
– | – | > 10 µM | COc1ccc(NC(=O)C2(C(=O)Nc3ccc(Oc4cc(N)ncn4)c(F)c3)CC2)cc1 | –
0.127 µM | > 1 µM | 0.017 µM | Nc1nccc(Oc2ccc(NC(=O)C3(C(=O)Nc4ccc(F)cc4)CC3)cc2F)c1Cl | IC50 [3]: 0.055 µM; IC50 [4]: 0.387 µM; IC50 [5]: > 1 µM; IC50 [6]: 2.22 µM; inhibition [7]: 100%; IC50 [8]: 0.279 µM; IC50 [2]: 0.172 µM
> 1 µM | > 1 µM | – | Nc1nccc(Oc2ccc(NC(=O)C3(C(=O)Nc4ccc(F)cc4)CC3)cc2F)n1 | –
> 1 µM | > 1 µM | – | Nc1cc(Oc2ccc(NC(=O)C3(C(=O)Nc4ccc(F)cc4)CC3)cc2F)ncn1 | –

Continued, compound first:

Compound | IC50 (EBC-1) | IC50 (HepG2) | IC50 [1] | further results
Nc1nccc(Oc2ccc(NC(=O)C3(C(=O)Nc4ccc(Cl)cc4)CC3)cc2F)c1Cl | 0.967 µM | > 1 µM | – | –
CCOc1ccn(-c2ccc(F)cc2)c(=O)c1C(=O)Nc1ccc(Oc2ccnc(N)c2Cl)c(F)c1 [BMS-777607] | 0.162 µM | – | 0.012 µM | IC50 [2]: 0.028 µM
Nc1cc(Oc2ccc(NC(=O)C3(C(=O)NCc4ccc(F)cc4)CC3)cc2F)ncn1 | – | – | > 10 µM | –
COc1cccc2c1C(=O)c1c(O)c3c(c(O)c1C2=O)C[C@@](O)(C(=O)CO)C[C@@H]3O[C@H]1C[C@H](N)[C@H](O)[C@H](C)O1 [DOXORUBICIN] | 0.305 µM | 0.0987 µM | – | –
Nc1nccc(Oc2ccc(NC(=O)C3(C(=O)Nc4cccc(F)c4)CC3)cc2F)c1Cl | > 1 µM | > 1 µM | – | –
COc1cc2nccc(Oc3ccc(NC(=O)C4(C(=O)Nc5ccc(F)cc5)CC4)cc3)c2cc1OC [CABOZANTINIB] | – | – | – | IC50 [2]: > 10 µM
